In test [1] the test system is PT and aPTT. Put plainly: PT and aPTT after oral administration in rabbit stasis model. Type of test: in vivo. Particulars: rabbits, stasis model, 1, 3, and 7 hours; ONO-1600586 50 mg/mL, rivaroxaban 15 mg/mL (so in the source). The method, then: The protocols of venous thrombosis by stasis were as follows (Supplementary Figure 4). First, fasting rabbits were orally administered a solvent as a control (n = 8), a FXIa inhibitor (ONO-1600586, 50 mg/kg, n = 8), or a FXa inhibitor (rivaroxaban, 15 mg/kg, n = 8) using a Nelaton catheter of 5 mm diameter (IZUMO Health Co, Ltd) 60 minutes before thrombus formation. The process of thrombus formation was performed under general anesthesia through the subcutaneous injection of a mixture of medetomidine hydrochloride (0.08 mg/kg body weight), butorphanol tartrate (0.2 mg/kg), and midazolam (0.4 mg/kg).
Blood samples were collected from the central ear arteries of the rabbits before and 1, 3, and 7 hours after administering the solvent, ONO-1600586, and rivaroxaban in 3.8% sodium citrate (9:1 v/v) using 21-gauge needles. Plasma samples were centrifuged at 1500 × g for 15 minutes at room temperature. PT and aPTT were measured using a coagulation timer (KC-1 Delta, Tcoag Ireland Ltd) and reagents (aPTT: ACTIN, Siemens; PT: THROMBOCHECK PT+, Sysmex). Data are expressed as a ratio of PT and aPTT to those before administration.

Test [2] relates to PT and aPTT. Put plainly: PT and aPTT of human blood with inhibitor added in vitro. Format: biochemical. As to conditions: ONO-1600586 3 μmol/L, rivaroxaban 1 μmol/L.

For the compound `O=C(NC[C@H]1CN(c2ccc(N3CCOCC3=O)cc2)C(=O)O1)c1ccc(Cl)s1` [rivaroxaban], in the test with PT and aPTT [1], the “PT after oral administration” value was “prolonged” and the “aPTT after oral administration” value is “prolonged”. In the test with PT and aPTT [2], the “PT compared with control” value came to 1.9 fold and the “aPTT compared with control” value turned out to be 1.8 fold. Besides, in the test with PT and aPTT [2] (n = 8), the PT was determined as 19 ± 3 s and the aPTT came to 62 ± 5 s.

The record behind these values is article PMC11999338, “Factor XI localization in human deep venous thrombus and function of activated factor XI on venous thrombus formation and hemostasis” (Research and Practice in Thrombosis and Haemostasis, 2025).
